We go through 5 molecules from US6469137B1, “Myelopeptides and their therapeutic use” (Primamedic, Ltd, priority 1997, dated 2002).

One data set concerns MT4 cells. The class given is cell-based, human. As for the experimental part:
The HIV-infected MT4 cells were incubated in RPMI-1640 culture medium supplemented with 10% FBS and 2 mM L-glutamine. The MT4 cells (0.5 million cells per 1 ml of culture medium) were placed in wells of a 24-well plastic culture plates and kept for 7 days of 37° C. in an atmosphere of 4.5% CO2. Each of the MPs examined was added into respective wells of the culture plates, to final concentrations of 0.1, 0.5, 1, 5, 10, 50 and 100 μg per 1 ml of culture were used. Azidothymidine (Sigma Chemical Co.) at its final concentration of 0.1 μg/ml, was used as a positive anti-viral control during each of the experiments.
Azidothymidine (0.1 μg/ml) caused 100% inhibition of HIV replication in the infected MT-4 cells.

The next data set relates to serum interferon. In words: Serum interferon increase in mice (titration on EMV-infected L929 cells). The class given is in vivo. The following applies: dose and time not given.
Data set [1] has as its system encephalomyocarditis virus (EMV). In words: Anti-viral activity in vitro, L929 cells infected by EMV. The class given is cell-based, mouse. The following applies: pre-incubation 24 or 48 h, then 100 TCID50 of EMV. How it is done: The L929 mouse fibroblastoid cell line was maintained in vitro as described above. MP-3, MP-4, MP-5 and MP-6 were added into triplicate cultures using the following final concentrations: 500, 250, 125, 63, 31, 16, 8, 4, 2, 1, 0.5, 0.25 μg per 1 ml of culture. Ridostin was used as a control interferon-inducer.
24 or 48 h post-injection, the L929 cell cultures were infected by 100 TCID50 of EMV. During the next 24 h the viral infection caused dramatic damages in L929 cells. […] MP-5, by contrast, when added in a final concentration of 16 μg/ml or more, completely abrogated destructive influence of the virus on L929 cells. So did MP-6, when added at a concentration of 4 μg/ml or more. […] MP-4 also defended the L929 cells from the virus-induced damage, after 48 h exposure of the cells in the presence of 32 μg/ml (or higher concentration) of the preparation before their challenge by the virus.

Where a SMILES comes first, the peptide text is derived from it.

As to `CC(C)C[C@H](N)C(=O)N[C@H](C(=O)N[C@@H](CS)C(=O)N[C@@H](Cc1ccc(O)cc1)C(=O)N1CCC[C@H]1C(=O)N[C@@H](CCC(N)=O)C(=O)O)C(C)C` [MP-3, LVCYPQ] (H-LVCYPQ-OH; N-terminus and C-terminus assumed), the “Damage of MT4 cells (cell viability)” value with MT4 cells is recorded as “no visible damage”.

Regarding `CC[C@H](C)[C@H](NC(=O)[C@H](CCCNC(=N)N)NC(=O)[C@@H]1CCCN1C(=O)[C@H](CCCNC(=N)N)NC(=O)[C@@H](N)Cc1ccccc1)C(=O)N[C@@H](CCSC)C(=O)N[C@H](C(=O)N1CCC[C@H]1C(=O)O)[C@@H](C)O` [MP-4, FRPRIMTP] (H-FRPRIMTP-OH; N-terminus and C-terminus assumed), the “Damage of MT4 cells (cell viability)” value in the data set with MT4 cells is “no visible damage”.

In the case of `CC(C)[C@H](N)C(=O)N[C@H](C(=O)N[C@@H](Cc1ccc(O)cc1)C(=O)N1CCC[C@H]1C(=O)N[C@@H](CC(=O)O)C(=O)O)C(C)C` [MP-5, VVYPD] (H-VVYPD-OH; N-terminus and C-terminus assumed), in the data set with MT4 cells, the “Damage of MT4 cells (cell viability)” value was “no visible damage”.

Take `CC(C)[C@H](N)C(=O)N[C@@H](CC(=O)O)C(=O)N1CCC[C@H]1C(=O)N1CCC[C@H]1C(=O)O` [MP-6, VDPP] (H-VDPP-OH; N-terminus and C-terminus assumed): the “Damage of MT4 cells (cell viability)” value in the data set on MT4 cells is given as “no visible damage”.

As to Ridostin, the “Serum interferon titer, level characteristic of positive control” value in the data set with serum interferon was found to be 320 units/ml. In addition, the “Concentration that completely abrogated destructive influence of the virus on L929 cells” value in data set [1] is at least 0.5 µg/mL.
